The nature of series [1]: Solubility of monensin in propylene glycol. Format: physicochemical. The source says: There is an indication that 50% of the monensin was found in solution in the propylene glycol.
We have found monopropylene glycol to be a poor solvent of monensin. While we have in NZ 272574/272940 referred to monopropylene glycol as being an antifreeze agent in which the ionophore antibiotic is sparingly soluble, we do appreciate that solubility to the extent referred to in Example 1 of EP 0,139,595 may be achieved when induced with ultrasound or heating.

For series [2] the following is noted: EP 0,139,595 Example 1: 250 g mycelium (10% monensin), 1250 cc propylene glycol, room temperature, 2 hours ultrasound; cited from earlier work.
The conditions of series [3]: cited from earlier work.

In the case of monensin, in series [1], the “solubility in monopropylene glycol” value is “poor solvent”. The “monensin found in solution in the propylene glycol” value in series [2] is listed as 50%. In series [3], the solubility in water result is on record as “only slightly soluble in water”.

The record behind these values is US20090238881A1, “IONOPHORE ANTIBIOTIC FORMULATIONS” (priority 2000, published 2009).
